The experiment has as its target T1, NLRP3 (Homo sapiens, UniProt Q96P20).
T1 construct: Seed THP-1 cells (5.56*10^5 cells/mL) containing 1.0 ug/mL LPS; endogenous in cells; host or cells: THP-1 cells
The experiment in a line: THP-1 LPS/nigericin IL1β release (pyroptosis assay), HTRF. The following applies: NLRP3 inhibitory activity; THP-1 cells, 1.0 ug/mL LPS, compound 3 hrs, nigericin 5 uM 1 hr, IL1β in supernatant. It is filed as cell-based. As for the experimental part:
The following method was used for compound screening. • 1. Seed THP-1 cells (5.56*10^5 cells/mL) containing 1.0 ug/mL LPS (SIGMA, L6529) in 45 uL RPMI 1640 medium (without FBS) into 384-well plate (Thermo Scientific, 164688). • 2. Add 5 uL compound (10 doses starting from 5 uM, 1:3 dilution) or vehicle (0.05% DMSO in medium) to the appropriate wells. • 3. Centrifuge the plates at 1000 rpm for 2 mins and incubate for 3 hrs at 37° C., 5% CO2. • 4. Add 5 uL nigericin (MEC, HY-100381) (final conc. 5 uM) to sample wells and positive control wells; add 5 uL RPMI 1640 medium to negative control wells. • 5. Centrifuge plates at 1000 rpm for 2 mins and incubate for 1 hr at 37° C., 5% CO2. • 6. At the end of the incubation period, centrifuge plates at 1000 rpm for 6 mins and transfer 8 uL supernatant into 384-well assay plates (PerkinElmer, 6008280). • 7. Add 8 ul RPMI 1640 medium into each well and spin down for 10 secs. • 8. Prepare the standard solutions and pre-mixed IL1β antibodie solution of Human IL1β kits (PerkinElmer, 62HIL1BPEH) according to the instruction. • 9. Add 16 uL standard solutions into clear wells of 384-well assay plates. • 10. Add 4 uL pre-mixed IL1β antibodie solution to all wells including sample wells, positive control wells, negative control wells and standard solutions wells. • 11. Seal the plates, spin down for 10 secs, incubation for overnight at RT and read on an HTRF® compatible reader (BMG LABTECH, PHERAstar FS). • 12. The concentrations of IL1β for treated wells are calculated by the standard curve. • 13. The IC50 data is fitted to a non-liner regression equation (log inhibitor vs. response—Variable slope four parameters)).
For orientation: In TR-FRET formats the signal depends on donor and acceptor labels being close together.

Each structure is given as a SMILES string.

T1 sequence (Q96P20 whole entry): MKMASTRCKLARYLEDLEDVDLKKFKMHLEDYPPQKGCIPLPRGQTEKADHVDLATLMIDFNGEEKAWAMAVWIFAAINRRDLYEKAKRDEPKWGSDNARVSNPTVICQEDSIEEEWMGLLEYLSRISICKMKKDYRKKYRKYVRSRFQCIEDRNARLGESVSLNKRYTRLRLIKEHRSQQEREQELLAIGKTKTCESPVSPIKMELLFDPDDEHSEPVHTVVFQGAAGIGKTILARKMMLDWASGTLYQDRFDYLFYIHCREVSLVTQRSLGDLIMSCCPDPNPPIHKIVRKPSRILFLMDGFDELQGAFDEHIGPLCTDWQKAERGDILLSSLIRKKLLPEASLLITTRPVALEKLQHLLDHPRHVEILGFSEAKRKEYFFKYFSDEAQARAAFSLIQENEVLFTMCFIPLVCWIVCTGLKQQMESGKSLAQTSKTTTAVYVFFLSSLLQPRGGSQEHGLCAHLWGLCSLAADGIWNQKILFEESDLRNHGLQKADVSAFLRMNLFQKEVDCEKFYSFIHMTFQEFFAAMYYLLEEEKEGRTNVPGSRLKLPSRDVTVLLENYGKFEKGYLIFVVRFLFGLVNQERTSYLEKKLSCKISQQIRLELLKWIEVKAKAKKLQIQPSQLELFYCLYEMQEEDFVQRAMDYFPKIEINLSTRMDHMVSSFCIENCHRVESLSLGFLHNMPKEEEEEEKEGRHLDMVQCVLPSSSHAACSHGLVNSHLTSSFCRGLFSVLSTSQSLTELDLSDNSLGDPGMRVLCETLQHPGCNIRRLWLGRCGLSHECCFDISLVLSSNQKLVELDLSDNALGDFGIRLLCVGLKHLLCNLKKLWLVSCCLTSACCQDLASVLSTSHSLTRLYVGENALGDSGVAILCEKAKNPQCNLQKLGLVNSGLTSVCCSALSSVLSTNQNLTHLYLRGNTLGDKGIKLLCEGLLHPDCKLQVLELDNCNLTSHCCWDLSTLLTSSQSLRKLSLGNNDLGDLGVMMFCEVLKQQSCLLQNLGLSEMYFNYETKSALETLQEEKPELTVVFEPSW

Turning to `Cc1cc2c(c(NC(=O)NS(=O)(=O)c3cn4c(n3)C(C3CC3)OCC4)c1-c1ccn3nccc3c1)CCC2` (stereo not shown) [Example 18, 8-cyclopropyl-N-((6-methyl-5-(pyrazolo[1,5-a]pyridin-5-yl)-2,3-dihydro-1H-inden-4-yl)carbamoyl)-5,6-dihydro-8H-imidazo[2,1-c][1,4]oxazine-2-sulfonamide], the IC50 (as a rule, the concentration needed to halve the response being measured) is no more than 100 nM.
The value for `Cc1cc2c(c(NC(=O)NS(=O)(=O)c3cn4c(n3)C(C3CC3)OCC4)c1-c1ccnc3[nH]ccc13)CCC2` (stereo not shown) [Example 19, 8-cyclopropyl-N-((6-methyl-5-(1H-pyrrolo[2,3-b]pyridin-4-yl)-2,3-dihydro-1H-inden-4-yl)carbamoyl)-5,6-dihydro-8H-imidazo[2,1-c][1,4]oxazine-2-sulfonamide] was 500 to 1000 nM; that for `Cc1cc2c(c(NC(=O)NS(=O)(=O)c3cc4n(n3)CCOC4(C)C)c1-c1ccnc3[nH]ccc13)CCC2` [Example 20, 4,4-dimethyl-N-((6-methyl-5-(1H-pyrrolo[2,3-b]pyridin-4-yl)-2,3-dihydro-1H-inden-4-yl)carbamoyl)-6,7-dihydro-4H-pyrazolo[5,1-c][1,4]oxazine-2-sulfonamide] was 100 to 500 nM.
In turn, `Cc1cc2c(c(NC(=O)NS(=O)(=O)c3cnn4c3COCC4)c1-c1ccnc3[nH]ccc13)CCC2` [Example 21, N-((6-methyl-5-(1H-pyrrolo[2,3-b]pyridin-4-yl)-2,3-dihydro-1H-inden-4-yl)carbamoyl)-6,7-dihydro-4H-pyrazolo[5,1-c][1,4]oxazine-3-sulfonamide] came in with an IC50 of 100 to 500 nM.
The compound `Cc1cc2c(c(NC(=O)NS(=O)(=O)c3cc4n(n3)CCOC4(C)C)c1-c1ccn3nccc3c1)CCC2` [Example 22, 4,4-dimethyl-N-((6-methyl-5-(pyrazolo[1,5-a]pyridin-5-yl)-2,3-dihydro-1H-inden-4-yl)carbamoyl)-6,7-dihydro-4H-pyrazolo[5,1-c][1,4]oxazine-2-sulfonamide] showed an IC50 of no more than 100 nM.
As to `Cc1cc2c(c(NC(=O)NS(=O)(=O)c3cc4n(n3)CCOC4)c1-c1ccn3nccc3c1)CCC2` [Example 23, N-((6-methyl-5-(pyrazolo[1,5-a]pyridin-5-yl)-2,3-dihydro-1H-inden-4-yl)carbamoyl)-6,7-dihydro-4H-pyrazolo[5,1-c][1,4]oxazine-2-sulfonamide], the IC50 was no more than 100 nM.
Consider `O=C(Nc1c(-c2ccn3nccc3c2)ccc2c1CCC2)NS(=O)(=O)c1cnc2c(c1)N(C1CC1)CCO2` [Example 24, 1-cyclopropyl-N-((5-(pyrazolo[1,5-a]pyridin-5-yl)-2,3-dihydro-1H-inden-4-yl)carbamoyl)-2,3-dihydro-1H-pyrido[2,3-b][1,4]oxazine-7-sulfonamide], for which the IC50 is no more than 100 nM.
The value for `Cc1cc2c(c(NC(=O)NS(=O)(=O)c3cnc4c(c3)N(C3CC3)CCO4)c1-c1ccn3nccc3c1)CCC2` [Example 25, 1-cyclopropyl-N-((6-methyl-5-(pyrazolo[1,5-a]pyridin-5-yl)-2,3-dihydro-1H-inden-4-yl)carbamoyl)-2,3-dihydro-1H-pyrido[2,3-b][1,4]oxazine-7-sulfonamide] was no more than 100 nM; that for `Cc1cc2c(c(NC(=O)NS(=O)(=O)c3cnn4c3COCC4)c1-c1ccn3nccc3c1)CCC2` [Example 26, N-((6-methyl-5-(pyrazolo[1,5-a]pyridin-5-yl)-2,3-dihydro-1H-inden-4-yl)carbamoyl)-6,7-dihydro-4H-pyrazolo[5,1-c][1,4]oxazine-3-sulfonamide] was 100 to 500 nM.
The value for `CO[C@@H]1COc2c(S(=O)(=O)NC(=O)Nc3c4c(cc(C)c3-c3ccn5nccc5c3)CCC4)cnn2C1` [Example 27, (S)-6-methoxy-N-((6-methyl-5-(pyrazolo[1,5-a]pyridin-5-yl)-2,3-dihydro-1H-inden-4-yl)carbamoyl)-6,7-dihydro-5H-pyrazolo[5,1-b][1,3]oxazine-3-sulfonamide] was no more than 100 nM; that for `CO[C@@H]1COc2c(S(=O)(=O)NC(=O)Nc3c4c(cc(C)c3-c3ccn5ccnc5c3)CCC4)cnn2C1` [Example 28, (S)-N-((5-(imidazo[1,2-a]pyridin-7-yl)-6-methyl-2,3-dihydro-1H-inden-4-yl)carbamoyl)-6-methoxy-6,7-dihydro-5H-pyrazolo[5,1-b][1,3]oxazine-3-sulfonamide] was no more than 100 nM.
The result for `CO[C@@H]1COc2c(S(=O)(=O)NC(=O)Nc3c4c(cc(C)c3-c3ccc5ccnn5c3)CCC4)cnn2C1` [Example 29, (S)-6-methoxy-N-((6-methyl-5-(pyrazolo[1,5-a]pyridin-6-yl)-2,3-dihydro-1H-inden-4-yl)carbamoyl)-6,7-dihydro-5H-pyrazolo[5,1-b][1,3]oxazine-3-sulfonamide] reads no more than 100 nM; that for `CO[C@@H]1COc2c(S(=O)(=O)NC(=O)Nc3c4c(cc(C)c3-c3ccc5nccn5c3)CCC4)cnn2C1` [Example 30, (S)-N-((5-(imidazo[1,2-a]pyridin-6-yl)-6-methyl-2,3-dihydro-1H-inden-4-yl)carbamoyl)-6-methoxy-6,7-dihydro-5H-pyrazolo[5,1-b][1,3]oxazine-3-sulfonamide], no more than 100 nM.

(Values after patent US12338255B2, “Bicyclic substituted sulfonylurea compounds as inhibitors of interleukin-1 activity” (Viva Star Biosciences (Suzhou) Co., Ltd., priority 2022, dated 2025).)
